These results are taken from patent publication US20100160356A1, “NOVEL CYCLOBUTYL COMPOUNDS AS KINASE INHIBITORS” (priority 2006, published 2010).

The target in one series is IGF1R (Homo sapiens, UniProt P08069). Nature of the series: Inhibition of IGF1R (flashplate assay). Type of series: biochemical. The note with it: flashplate method. The protocol: (§1) The test plates used are 96-well flashplate microtitre plates from Perkin Elmer (USA). The components of the kinase reaction are pipetted into the assay plate. The IGF1R kinase is incubated for 1 hr. with radioactively labelled ^33P-ATP in the presence and absence of test substances in a total volume of 100 μl at room temperature together with biotinylated poly(Glu, Tyr)4:1. The reaction is terminated using 25 μl of a 200 mM EDTA solution. After incubation for a further 30 min at room temperature, the supernatants are removed by suction, and the wells are washed three times with 100 μl of 0.9% NaCl solution each time. The radioactivity is measured using a Topcount scintillation counter (PerkinElmer, USA). IC50 values are calculated using the RS1 computer program.

The target in series [1] is T1, FAK (focal adhesion kinase) (Homo sapiens, UniProt Q05397).
T1 construct: endogenous in cells; host or cells: Calu-6 or HT-29
The series is described as follows: Inhibition of FAK (ELISA assay), FAK phosphorylation in cells. The series is classed as cell-based. The note with it: human cells with FAK amplification. The protocol: Activated FAK promotes the invasive growth of tumour cells and inhibits anoikis.
The amount of phosphorylated FAK is determined by a specific capture ELISA or an analogous LUMINEX assay. FAK from cell lysates is bound to a 96-well ELISA plate or LUMINEX beads by means of a specific antibody (“capturing”), and the tyrosine phosphorylation is detected using a biotin-labelled anti-phosphotyrosine antibody and a streptavidin-peroxidase conjugate by a chemiluminescence method or by means of a fluorescence-labelled anti-phosphotyrosine antibody.
For determination of the activity of kinase inhibitors, cells are pretreated with increasing concentrations of these compounds for 45 min, and the FAK phosphorylation is then determined. As internal control, a concentration series of a reference inhibitor is measured.

Another series deals with VEGF-2 (Homo sapiens, UniProt P35968). The series is described as follows: Inhibition of VEGF-2 (flashplate assay). The note with it: flashplate method. Type of series: biochemical. The protocol:
as §1, with “are 384-well” for “are 96-well”, “The VEGF-2” for “The IGF1R”, “for 3” for “for 1”

A further series concerns the target TIE2 (Homo sapiens, UniProt Q02763). The series is described as follows: Inhibition of TIE2 (flashplate assay). The series is classed as biochemical. The note with it: flashplate method. The protocol:
B4: inhibition of T1E2 (Flashplate Assay)
as §1, with “are 384-well” for “are 96-well”, “The TIE2” for “The IGF1R”, “for 3” for “for 1”

For another series, the target named is PDGFRβ (Homo sapiens, UniProt P09619). The series is described as follows: Inhibition of PDGFRβ (flashplate assay). The series is classed as biochemical. To be noted: flashplate method. As to the method:
as §1, with “The PDGFRβ” for “The IGF1R”, “for 3” for “for 1”, “temperature (here autophosphorylation of the kinase).” for “temperature together with biotinylated poly(Glu, Tyr)4:1.”, “using 150” for “using 25”, “a 60” for “a 200”, “with 200” for “with 100”

The next series has as its target T2, TGFβR1 (Homo sapiens, UniProt P36897).
T2 sequence (P36897 34-503): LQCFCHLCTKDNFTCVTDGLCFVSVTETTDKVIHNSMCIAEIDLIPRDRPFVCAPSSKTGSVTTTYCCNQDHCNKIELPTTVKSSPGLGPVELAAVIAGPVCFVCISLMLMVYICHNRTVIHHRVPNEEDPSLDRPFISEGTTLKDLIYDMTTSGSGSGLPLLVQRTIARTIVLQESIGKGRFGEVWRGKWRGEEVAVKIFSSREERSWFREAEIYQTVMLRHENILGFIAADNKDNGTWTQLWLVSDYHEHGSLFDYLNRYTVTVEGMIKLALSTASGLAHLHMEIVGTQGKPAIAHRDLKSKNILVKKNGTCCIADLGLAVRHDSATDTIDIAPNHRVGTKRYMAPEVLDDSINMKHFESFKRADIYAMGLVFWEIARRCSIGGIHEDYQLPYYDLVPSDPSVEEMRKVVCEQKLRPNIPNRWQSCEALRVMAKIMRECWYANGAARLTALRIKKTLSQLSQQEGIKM
The series is described as follows: Inhibition of TGFβR1 (flashplate assay). The series is classed as biochemical. To be noted: flashplate method. As to the method: The test is carried out as described in Example B1b for IGF1R. A biotinylated is added to the TGFβR1 kinase.
The kinase assay is carried out as a 384-well flashplate assay.
The components of the kinase reaction are pipetted into the assay plate. The TGFβR1 kinase is incubated for 45 min with radioactively labelled ^33P-ATP in the presence and absence of test substances together with biotinylated substrate in a total volume of 35 μl. The reaction is terminated using 25 μl of 200 mM EDTA solution, removed by suction after 30 min at room temperature, and the wells are washed with three times with 100 μl of 0.9% NaCl solution each time. The radioactivity is measured using a Topcount scintillation counter (PerkinElmer, USA). IC50 values are calculated using the RS1 computer program.

In another series the target is T3, IGF1 receptor (IGF1R) (Homo sapiens, UniProt P08069).
T3 construct: endogenous in cells; host or cells: MCF-7 or Calu-6
Nature of the series: Inhibition of IGF1R (ELISA assay), IGF1-stimulated autophosphorylation in cells. The series is classed as cell-based. The note with it: human tumour cells stimulated with IGF1, read-out: IC50 IGF (ELISA). The protocol:
The stimulation induces an autophosphorylation of tyrosine residues in the cytoplasmatic IGF1R domain, which triggers signal transduction cascades, which result in inhibition of apoptosis and proliferation of the cells.
The amount of phosphorylated IGF1R is determined by a receptor-specific capture ELISA or an analogous LUMINEX assay. The IGF1R from cell lysates is bound to a 96-well ELISA plate or LUMINEX beads by means of a specific antibody (“capturing”), and the tyrosine phosphorylation is detected using a biotin-labelled anti-phosphotyrosine antibody and a streptavidin-peroxidase conjugate by a chemiluminescence method or by means of a fluorescence-labelled anti-phosphotyrosine antibody.
For determination of the activity of kinase inhibitors, cells are pretreated with increasing concentrations of these compounds for 45 min and subsequently stimulated using IGF1 for 5 min. As internal control, the biological activity of the ligand IGF1 is checked, and a concentration series of an IGF1R reference inhibitor is measured.
A general note: ELISA stands for enzyme-linked immunosorbent assay.

Series [2] can be described thus: Solubility in phosphate buffer by the shake flask method. Type of series: physicochemical. To be noted: 37 °C, pH 7, aqueous buffer, thermodynamic from solid, pH 7.0, 37° C., 24 h shake flask. As to the method:
The procedure described in Glomme et al. (J. Pharm. Sci. 94(1): 1-16, 2005) is followed. The concentration determination is carried out by HPLC with UV detection against a standard solution.
Buffer: 3.954 g of sodium dihydrogenphosphate monohydrate 6.024 g of sodium chloride +950 ml of ultrapure water. Setting of pH 7.0 using 0.1 M NaOH or 0.1 M HCl.
The samples were shaken at 37° C. and 450 rpm for 24 h. After about 7 h, the pH of the samples was checked and adjusted if necessary. It was checked whether the sample was still present in excess. Just before the end of the 24 h shaking time, the samples were again checked for pH and a precipitate.
• Ultrapure water plant: MilliQ gradient, Millipore, unit: F3PN37462D • Shaker: TiMix control, Bühler • Incubation hood: TH 15, Bühler • pH meter: 766 Calimatic Knick instrument: pH 1 • pH electrode: InLab 423 Mettler • HPLC: column: LiChroCart 125-4 LiChrospher 100 RP-18 • flow rate: 1.000 ml/min • eluents: • eluent A: 2 ml of diethylamine, for synthesis+1000 ml of methanol, LiChrosolv • eluent B: 5 g of ammonium acetate, for analysis+5 ml of methanol, LiChrosolv+995 ml of ultrapure water

Structures are written as SMILES. Converted amounts (≈) assume the structure as drawn.

Sequence of VEGF-2 (P35968 20-1356): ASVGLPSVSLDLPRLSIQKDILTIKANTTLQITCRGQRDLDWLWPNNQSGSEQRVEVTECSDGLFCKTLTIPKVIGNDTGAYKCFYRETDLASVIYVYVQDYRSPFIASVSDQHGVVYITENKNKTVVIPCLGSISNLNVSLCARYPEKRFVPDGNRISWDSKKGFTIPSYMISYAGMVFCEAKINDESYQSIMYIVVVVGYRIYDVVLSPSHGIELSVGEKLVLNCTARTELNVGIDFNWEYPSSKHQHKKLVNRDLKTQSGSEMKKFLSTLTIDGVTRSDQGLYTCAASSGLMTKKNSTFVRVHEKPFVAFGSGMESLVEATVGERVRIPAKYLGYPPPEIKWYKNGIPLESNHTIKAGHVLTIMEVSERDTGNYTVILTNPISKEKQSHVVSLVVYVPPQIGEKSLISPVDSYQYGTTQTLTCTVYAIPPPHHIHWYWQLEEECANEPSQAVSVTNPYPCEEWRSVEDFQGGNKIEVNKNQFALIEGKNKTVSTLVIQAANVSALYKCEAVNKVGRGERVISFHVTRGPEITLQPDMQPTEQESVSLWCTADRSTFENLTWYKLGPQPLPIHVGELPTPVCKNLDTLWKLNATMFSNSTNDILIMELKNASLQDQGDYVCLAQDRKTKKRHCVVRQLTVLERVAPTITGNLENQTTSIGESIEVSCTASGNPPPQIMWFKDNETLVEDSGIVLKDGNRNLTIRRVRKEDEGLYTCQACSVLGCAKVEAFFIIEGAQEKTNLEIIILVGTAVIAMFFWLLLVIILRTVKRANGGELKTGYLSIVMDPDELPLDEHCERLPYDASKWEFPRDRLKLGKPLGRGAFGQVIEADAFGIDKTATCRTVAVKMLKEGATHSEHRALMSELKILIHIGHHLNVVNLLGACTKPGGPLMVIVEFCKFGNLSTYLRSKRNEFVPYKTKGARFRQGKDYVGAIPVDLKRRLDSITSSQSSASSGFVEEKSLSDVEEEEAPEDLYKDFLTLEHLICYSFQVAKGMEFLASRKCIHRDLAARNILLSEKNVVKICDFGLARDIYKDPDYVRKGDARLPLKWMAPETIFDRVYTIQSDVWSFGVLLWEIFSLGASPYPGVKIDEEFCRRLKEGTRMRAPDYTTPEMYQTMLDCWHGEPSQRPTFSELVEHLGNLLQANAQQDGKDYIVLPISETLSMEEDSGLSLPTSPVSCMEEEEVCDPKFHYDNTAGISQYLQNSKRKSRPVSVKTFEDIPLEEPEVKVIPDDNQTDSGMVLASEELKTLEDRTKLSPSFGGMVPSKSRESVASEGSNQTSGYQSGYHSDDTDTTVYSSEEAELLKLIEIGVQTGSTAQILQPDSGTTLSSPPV
Sequence of TIE2 (Q02763 23-1124, species assumed): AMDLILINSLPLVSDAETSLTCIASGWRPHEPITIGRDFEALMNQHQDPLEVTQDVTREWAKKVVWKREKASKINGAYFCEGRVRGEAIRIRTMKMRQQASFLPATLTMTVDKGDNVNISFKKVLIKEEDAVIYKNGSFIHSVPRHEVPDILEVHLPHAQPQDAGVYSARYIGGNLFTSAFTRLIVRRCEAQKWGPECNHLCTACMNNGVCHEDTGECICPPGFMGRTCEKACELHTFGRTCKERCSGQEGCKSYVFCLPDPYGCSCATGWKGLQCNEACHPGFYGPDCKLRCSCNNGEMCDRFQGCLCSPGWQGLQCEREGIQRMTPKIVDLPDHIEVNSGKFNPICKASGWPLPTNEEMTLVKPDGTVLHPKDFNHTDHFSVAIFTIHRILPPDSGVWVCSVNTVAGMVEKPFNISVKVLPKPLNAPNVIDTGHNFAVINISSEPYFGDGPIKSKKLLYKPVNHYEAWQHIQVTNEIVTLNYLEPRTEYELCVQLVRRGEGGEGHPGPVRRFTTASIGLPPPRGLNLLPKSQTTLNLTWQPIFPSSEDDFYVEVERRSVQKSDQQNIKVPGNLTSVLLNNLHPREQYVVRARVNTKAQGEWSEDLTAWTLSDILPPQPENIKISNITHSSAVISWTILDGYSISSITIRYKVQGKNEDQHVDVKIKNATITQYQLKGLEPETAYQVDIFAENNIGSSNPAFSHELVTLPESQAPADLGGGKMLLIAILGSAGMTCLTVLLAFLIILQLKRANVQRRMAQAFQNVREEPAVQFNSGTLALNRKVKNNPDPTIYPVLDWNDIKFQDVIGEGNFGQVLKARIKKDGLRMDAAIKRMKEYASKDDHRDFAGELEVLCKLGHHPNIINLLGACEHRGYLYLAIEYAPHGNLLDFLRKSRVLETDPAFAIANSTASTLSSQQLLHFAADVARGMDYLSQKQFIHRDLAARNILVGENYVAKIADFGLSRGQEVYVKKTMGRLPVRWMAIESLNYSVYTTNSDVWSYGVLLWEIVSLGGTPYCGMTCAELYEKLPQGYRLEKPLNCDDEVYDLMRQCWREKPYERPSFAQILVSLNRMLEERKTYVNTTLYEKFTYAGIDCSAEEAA
Sequence of IGF1R (P08069 31-1367, species assumed): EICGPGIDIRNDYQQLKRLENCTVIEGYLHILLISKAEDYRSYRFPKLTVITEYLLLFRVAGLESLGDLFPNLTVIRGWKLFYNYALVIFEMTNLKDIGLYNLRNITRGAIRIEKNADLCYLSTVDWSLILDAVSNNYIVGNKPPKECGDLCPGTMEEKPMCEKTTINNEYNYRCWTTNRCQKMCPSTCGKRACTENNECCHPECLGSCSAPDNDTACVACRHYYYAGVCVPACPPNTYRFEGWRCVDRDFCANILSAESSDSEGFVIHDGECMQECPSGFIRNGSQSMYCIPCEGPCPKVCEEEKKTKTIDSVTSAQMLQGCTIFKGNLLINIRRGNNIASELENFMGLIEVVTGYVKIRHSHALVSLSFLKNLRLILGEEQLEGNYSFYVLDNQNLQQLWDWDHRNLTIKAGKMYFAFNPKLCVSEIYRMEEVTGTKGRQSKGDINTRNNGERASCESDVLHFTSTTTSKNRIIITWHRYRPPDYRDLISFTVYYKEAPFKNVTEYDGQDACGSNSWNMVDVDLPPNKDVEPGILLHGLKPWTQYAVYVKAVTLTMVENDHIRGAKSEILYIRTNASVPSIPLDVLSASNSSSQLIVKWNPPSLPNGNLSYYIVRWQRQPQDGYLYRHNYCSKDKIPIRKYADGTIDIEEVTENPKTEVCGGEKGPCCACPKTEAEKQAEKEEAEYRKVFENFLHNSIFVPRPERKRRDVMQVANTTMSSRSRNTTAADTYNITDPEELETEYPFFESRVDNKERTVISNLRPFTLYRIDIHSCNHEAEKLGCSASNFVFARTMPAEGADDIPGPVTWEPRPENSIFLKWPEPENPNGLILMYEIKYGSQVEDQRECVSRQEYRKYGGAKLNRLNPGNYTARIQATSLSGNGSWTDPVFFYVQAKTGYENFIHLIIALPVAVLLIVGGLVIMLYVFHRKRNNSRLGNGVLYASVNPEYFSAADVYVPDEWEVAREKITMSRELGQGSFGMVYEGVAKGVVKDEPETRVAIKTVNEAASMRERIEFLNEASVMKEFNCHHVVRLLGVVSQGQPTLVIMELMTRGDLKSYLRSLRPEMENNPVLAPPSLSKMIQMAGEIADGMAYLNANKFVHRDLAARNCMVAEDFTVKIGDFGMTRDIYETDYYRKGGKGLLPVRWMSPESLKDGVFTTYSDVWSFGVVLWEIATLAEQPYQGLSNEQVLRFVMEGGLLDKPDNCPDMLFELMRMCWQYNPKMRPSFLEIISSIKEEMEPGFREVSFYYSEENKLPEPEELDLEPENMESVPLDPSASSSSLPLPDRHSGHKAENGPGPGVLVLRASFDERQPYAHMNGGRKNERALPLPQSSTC
T3 sequence (P08069 31-1367): as the sequence (P08069 31-1367, species assumed) above
T1 sequence (Q05397 whole entry): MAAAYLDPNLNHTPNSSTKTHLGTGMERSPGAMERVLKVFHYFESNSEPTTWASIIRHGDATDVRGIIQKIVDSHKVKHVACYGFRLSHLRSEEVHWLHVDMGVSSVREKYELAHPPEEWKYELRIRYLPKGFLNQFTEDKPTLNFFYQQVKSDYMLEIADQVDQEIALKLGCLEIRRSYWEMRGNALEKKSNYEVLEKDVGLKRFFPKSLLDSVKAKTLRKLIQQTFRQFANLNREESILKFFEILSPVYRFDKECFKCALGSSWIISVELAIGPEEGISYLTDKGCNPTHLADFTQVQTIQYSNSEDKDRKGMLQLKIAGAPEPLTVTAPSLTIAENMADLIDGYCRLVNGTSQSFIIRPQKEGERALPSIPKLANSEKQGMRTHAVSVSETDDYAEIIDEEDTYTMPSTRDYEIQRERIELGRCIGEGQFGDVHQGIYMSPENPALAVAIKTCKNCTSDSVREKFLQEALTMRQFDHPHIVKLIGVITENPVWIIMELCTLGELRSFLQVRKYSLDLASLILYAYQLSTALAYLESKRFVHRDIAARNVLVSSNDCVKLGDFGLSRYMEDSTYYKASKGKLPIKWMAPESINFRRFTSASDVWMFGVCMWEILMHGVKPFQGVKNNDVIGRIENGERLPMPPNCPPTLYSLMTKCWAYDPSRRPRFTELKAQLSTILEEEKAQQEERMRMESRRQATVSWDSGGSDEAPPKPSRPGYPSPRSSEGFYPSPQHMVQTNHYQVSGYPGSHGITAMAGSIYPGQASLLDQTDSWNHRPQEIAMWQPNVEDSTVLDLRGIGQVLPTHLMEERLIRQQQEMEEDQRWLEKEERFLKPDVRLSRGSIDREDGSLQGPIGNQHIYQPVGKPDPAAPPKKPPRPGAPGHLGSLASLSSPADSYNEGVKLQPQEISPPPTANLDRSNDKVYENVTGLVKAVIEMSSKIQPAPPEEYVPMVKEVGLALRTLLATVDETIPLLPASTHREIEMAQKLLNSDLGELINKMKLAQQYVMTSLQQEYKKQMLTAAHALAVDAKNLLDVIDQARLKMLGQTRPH

By IC50 is commonly meant the point on the concentration scale where inhibition reaches its midpoint. By melting point is commonly meant the temperature, or range, at which the solid turns liquid. Compound `NCC1CC(n2cc(-c3ccccc3)c3c(N)ncnc32)C1` (centres unmarked) [Compound 4] yielded a melting point of 84 to 86 °C. The compound also displayed an IC50 at IGF1R of 7400 nM. Moreover, in [1], the half-inhibitory concentration (IC50) stood at 1100 nM. The compound also yielded an IC50 against VEGF-2 of 1100 nM. Besides, the IC50 against TIE2 was determined as 7400 nM. The compound further displayed an IC50 on PDGFRβ of 920 nM. On TGFβR1, half-maximal inhibition (IC50) was put at 2800 nM.

In the case of `NCC1CC(n2cc(-c3ccc(N)cc3)c3c(N)ncnc32)C1` (centres unmarked) [Compound 24], the half-inhibitory concentration (IC50) against IGF1R is 2300 nM; at IGF1 receptor (IGF1R) it was 9200 nM; in [1] it was 3300 nM; on VEGF-2, 630 nM; on TIE2, 1500 nM; at PDGFRβ it was 630 nM.

Usually solubility stands for the dissolved amount per volume that the medium holds. On to `Nc1ncnc2c1c(-c1cccc(OCc3ccccc3)c1)cn2C1CC(CN2C(=O)c3ccccc3C2=O)C1` (centres unmarked) [2-{3-[4-Amino-5-(3-benzyloxyphenyl)pyrrolo[2,3-d]pyrimidin-7-yl]cyclobutylmethyl}isoindole-1,3-dione, reference compound], for which the solubility at 24 h in series [2] is below 1 µg/mL.

In turn, `NCC1CC(n2cc(-c3ccc4c(c3)OCCO4)c3c(N)ncnc32)C1` (centres unmarked) [Compound 53] had a melting point of 324 to 325.5 °C. For the same compound, the IC50 at IGF1 receptor (IGF1R) was found to be 5300 nM. The compound further had an IC50 in [1] of 1900 nM. Further, the IC50 against VEGF-2 turned out to be 1400 nM. For the same compound, the 50% inhibitory concentration (IC50) against TIE2 was determined as 2000 nM. At PDGFRβ, inhibition was half-maximal at 1100 nM (IC50). Besides, the IC50 on TGFβR1 is 1600 nM.

The compound `Nc1ncnc2c1c(-c1cccc(OCc3ccccc3)c1)cn2C1CC(CNC(=O)N2CCCCC2)C1` (centres unmarked) [Piperidine-1-carboxylic acid {3-[4-amino-5-(3-benzyloxy-phenyl)pyrrolo[2,3-d]pyrimidin-7-yl]cyclo-butylmethyl}amide, reference compound] yielded a solubility at 24 h in [2] below 1 µg/mL.

With `CS(=O)(=O)c1cccc(-c2cn(C3CC(CN)C3)c3ncnc(N)c23)c1` (centres unmarked) [Compound 11, 7-(3-Aminomethylcyclobutyl)-5-(3-methanesulfonyl-phenyl)-7H-pyrrolo[2,3-d]pyrimidin-4-ylamine], the values for the IC50 (on IGF1 receptor (IGF1R); in [1]) were 10000 nM and 28000 nM, respectively. The same compound gave a solubility at 24 h in series [2] above 1000 µg/mL.

For `NCC1CC(n2cc(-c3ccc4ccn(Cc5ccccc5)c4c3)c3c(N)ncnc32)C1` (centres unmarked) [Compound 55], the IC50 was 1600 nM against IGF1R; 3500 nM on IGF1 receptor (IGF1R); 24000 nM in series [1]; 190 nM against VEGF-2; 680 nM at TIE2.

On to `CC(=O)NCC1CC(n2cc(-c3cccc(OCc4ccccc4)c3)c3c(N)ncnc32)C1` (centres unmarked) [N-{3-[4-Amino-5-(3-benzyloxyphenyl)pyrrolo[2,3-d]pyrimidin-7-yl]cyclobutylmethyl}acetamide, reference compound], for which the solubility at 24 h in series [2] was 5 µg/mL (≈ 11.3 µM).

In series [2], `NCC1CC(n2cc(-c3cccc(OCc4ccccc4)c3)c3c(N)ncnc32)C1` (centres unmarked) [7-(3-Aminomethylcyclobutyl)-5-(3-benzyloxyphenyl)-7H-pyrrolo[2,3-d]pyrimidin-4-ylamine, reference compound] showed a solubility at 24 h of 233 µg/mL (≈ 583 µM).

For `NCC1CC(n2cc(-c3ccc4c(ccn4Cc4ccccc4)c3)c3c(N)ncnc32)C1` (centres unmarked) [Compound 56], the IC50 against IGF1R was determined as 1400 nM; at IGF1 receptor (IGF1R), 4100 nM; at VEGF-2 it was 61 nM; at TIE2, 495 nM; at TGFβR1 it was 5000 nM.

`Nc1ncnc2c1c(-c1cccc(OCc3ccccc3)c1)cn2C1CC(CN2CCCC2)C1` (centres unmarked) [5-(3-Benzyloxyphenyl)-7-(3-pyrrolidin-1-ylmethyl-cyclobutyl)-7H-pyrrolo[2,3-d]pyrimidin-4-ylamine, reference compound] had a solubility at 24 h in series [2] of 53 µg/mL (≈ 117 µM).

In turn, `NCC1CC(n2cc(-c3cccc(F)c3)c3c(N)ncnc32)C1` (centres unmarked) [Compound 6, 7-(3-aminomethylcyclobutyl)-5-(3-fluorophenyl)-7H-pyrrolo[2,3-d]pyrimidin-4-ylamine] yielded a melting point of 101 to 102 °C. The compound further had an IC50 against IGF1R of 7500 nM. Also, half-maximal inhibition in series [1] (IC50) was put at 1400 nM. The compound further showed an IC50 against VEGF-2 of 1800 nM. At PDGFRβ, this compound returned a half-maximal inhibitory concentration (IC50) of 700 nM. The same compound registered an IC50 against TGFβR1 of 1700 nM.
